Article PMC11493283, “N^4-Hydroxycytidine/molnupiravir inhibits RNA virus-induced encephalitis by producing less fit mutated viruses” (PLOS Pathogens, 2024)

Experiments:
[1] = tested on: LACV; assay: Antiviral efficacy against LACV in Vero cells, virus titer by plaque assay; type: cell-based; settings: La Crosse virus, LACV 0.1 MOI, 24 hpi, read-out: EC50 (50% reduction in virus titer)
Procedure: (§1) Cells were seeded in 24-well plates (1 × 10^5 cells/well) and infected with LACV (0.1 MOI). At 1 hour post infection (hpi), medium was replaced with fresh medium containing 6 different concentrations for each of the drugs. RBV and FAV were tested at concentrations of 1, 3, 10, 30, 100, and 300 μM, while NHC was tested at concentrations of 0.1, 0.3, 1, 3, 10 and 30 μM. DMSO was used as vehicle control. At 24 hpi, the cell supernatant was harvested, centrifuged to eliminate cell debris and stored at −80 °C for sequencing (described below) and plaque assay following the method of Ojha et al. 2021 [32]. Quantified virus titers were plotted to represent antiviral efficacy. The EC50 (50% effective concentration representing a 50% reduction in virus titer) was determined by extrapolating a dose-response curve using GraphPad Prism 8 and 9.

[2] = tested on: LACV; assay: Antiviral efficacy against LACV in N2a cells, virus titer by plaque assay; type: cell-based; settings: La Crosse virus, LACV 0.1 MOI, 24 hpi, read-out: EC50 (50% reduction in virus titer)
Procedure: as §1

[3] = tested on: LACV; assay: Antiviral efficacy against LACV in hNSCs, virus titer by plaque assay; type: cell-based; settings: La Crosse virus, LACV 0.1 MOI, 24 hpi, read-out: EC50 (50% reduction in virus titer)
Procedure: as §1

[4] = tested on: LACV; assay: MPID-NGS mutation rate of LACV in cell culture; type: cell-based, La Crosse virus; settings: Vero cells; RBV, FAV: increase only at 100 μM; NHC also in hNSCs and N2a
Procedure: as §1
(§2) We used a Primer ID (PID) library preparation approach with Illumina MiSeq next-generation sequencing (NGS) to examine the mutagenic effects of these drugs on viral RNA allowing deep coverage of the viral population while maintaining a low method error rate (1 in 10,000 nucleotides). We designed cDNA primers targeting a 372 bp region of the RdRp gene within the L segment (referred as L7 in the study), and included a second amplicon covering a 455 bp portion of the M segment (referred as M4 in the study). Each cDNA primer included a block of random nucleotides (11 bases long) as the Primer ID/unique molecular identifier (UMI). […] After gel purification/extraction of the PCR product (Qiagen MinElute Gel Extraction kit), the extracted libraries were quantified using a Qubit fluorimeter and subjected to Agilent TapeStation analysis. For each sequencing run, 24 quantified libraries were pooled for MiSeq 300 base paired-end sequencing at the UNC High Throughput Sequencing Facility. […] Each type of substitution rate was calculated against the wildtype sequence at the sequenced regions. The sequencing date were submitted to the National Center for Biotechnology Information (NCBI) Sequence Read Archive (SRA), accession number is PRJNA1092655.

[5] = tested on: Vero cells; settings: copied and converted to µM from µg/ml, ref not given; cited from earlier work
[6] = tested on: hNSCs; settings: copied and converted to µM from µg/ml, ref not given; cited from earlier work
[7] = tested on: LACV; assay: LACV encephalitis mouse model, IP inoculation; type: in vivo, C57BL/6 mice
Procedure: (§3) Viral RNA was isolated using the Zymo Direct-zol RNA MiniPrep Kit (Zymo Research) per the manufacturer’s directions. First-strand complementary DNA (cDNA) was generated using iScript Reverse Transcriptase (Bio-Rad). qRT-PCR was performed using PowerUp SYBR Green Master Mix (ThermoFischer) on QuantStudio 6 (Applied Biosystems). Primers used for the reaction were synthesized by Integrated DNA Technologies (IDT) to quantify LACV viral RNA, targeting the M segment of the genome: forward primer 5’-[…]-3’, reverse primer 5’-[…]-3’.
(§4) All animal experiments were performed following the protocols 2019-023-E and 2022-019-E approved by the National Institute of Allergy and Infectious Disease/National Institutes of Health/Rocky Mountain Laboratories Institutional Animal Care and Use Committee. For this study, a mix of male and female C57BL/6 mice at 23 to 25 days old were used. Mice were divided evenly and infected with LACV at either 1 × 10^3 pfu by an IP route or 1 x 10^2 pfu by an IN route. IP-infected mice were started on treatment with MOV at either the date of infection or at 3 dpi; the IN-infected mice were started on treatment on the day of infection. MOV was diluted in 10% polyethylene glycol (PEG), 2.5% Cremophor RH40, and 87.5% sterile water which was used as vehicle control. For oral administration, 300 mg/kg of MOV twice a day was given for up to 10 consecutive days using a straight 24-gauge ball-tip disposable feeding needle (Instech). Mice were examined twice daily for 28–30 days for clinical signs of LACV-induced neurologic disease, which mostly involved limb paralysis, ataxia, or repeated seizures. Mice showing one or more of these clinical symptoms were scored as having clinically significant disease and were subsequently euthanized for tissue removal. Occasionally, LACV-infected mice died from the acute seizures. These mice were also scored as having clinically significant disease and underwent tissue removal when possible.
(§5) Brain tissue and lymph nodes were harvested from mice with clinical symptoms (as described above) or at 5 dpi and stored at -80°C. Half of the sagittal section of the brain tissue was used for plaque assays, and the other half for RNA isolation for qRT-PCR and sequencing. For the plaque assay, brain tissues were homogenized in the presence of DMEM using the Bead Mill 24 (Fisher Scientific) homogenizer at 5,300 rpm for 25 seconds. Homogenized samples were centrifuged at 5000 x g for 10 min. Supernatants were then diluted in DMEM containing 10% FBS to 10^−1 to 10^−7 dilutions and subjected to a plaque assay.
We used a digital scanner to scan the plaque assay plates. Digitized images were imported into FIJI/ImageJ v1.52n, and pixel calibration values were calculated based on the well diameter and corresponding digitized image. To quantify plaque size (surface area), wells with clearly isolated plaques were selected for segmentation and analysis. The image lookup table for each well was inverted followed by binarization prior to analysis, with a minimum area of 0.39 mm^2 to eliminate false positives due to slight variations in crystal violet staining. The measurements were imported into Microsoft Excel for data compilation, and graphed and analyzed using GraphPad Prism v9.3.1. Analysis of plaque size was done only when the plaque assays for different virus samples were done in parallel.

[8] = tested on: LACV; assay: LACV encephalitis mouse model, IN inoculation; type: in vivo, C57BL/6 mice
Procedure: as §3, §4, §5

[9] = tested on: LACV; assay: MPID-NGS mutation rate of LACV RNA in brain tissue, IP-infected mice; type: in vivo, C57BL/6 mice
Excerpt: We used a Primer ID (PID) library preparation approach with Illumina MiSeq next-generation sequencing (NGS) to examine the mutagenic effects of these drugs on viral RNA allowing deep coverage of the viral population while maintaining a low method error rate (1 in 10,000 nucleotides). We designed cDNA primers targeting a 372 bp region of the RdRp gene within the L segment (referred as L7 in the study), and included a second amplicon covering a 455 bp portion of the M segment (referred as M4 in the study). Each cDNA primer included a block of random nucleotides (11 bases long) as the Primer ID/unique molecular identifier (UMI). Extracted viral RNA was reversed transcribed using SuperScript III (Thermal Fisher) to make cDNA in a single reaction with the two different cDNA primers. After bead purification, the cDNA was amplified by PCR using a mixture of forward primers and a universal reverse primer, followed by a second round of PCR to incorporate Illumina sequencing adapters and barcodes within the amplicons. After gel purification/extraction of the PCR product (Qiagen MinElute Gel Extraction kit), the extracted libraries were quantified using a Qubit fluorimeter and subjected to Agilent TapeStation analysis. For each sequencing run, 24 quantified libraries were pooled for MiSeq 300 base paired-end sequencing at the UNC High Throughput Sequencing Facility. Primers used for the library prep can be found in S1 Table. The initial Primer ID data were processed using the Illumina bcl2fastq pipeline (version 2.20.0), and then template consensus sequences (TCSs) were constructed using the tcs pipeline version 2.5.1 (https://primer-id.org/). Each type of substitution rate was calculated against the wildtype sequence at the sequenced regions. The sequencing date were submitted to the National Center for Biotechnology Information (NCBI) Sequence Read Archive (SRA), accession number is PRJNA1092655.
All animal experiments were performed following the protocols 2019-023-E and 2022-019-E approved by the National Institute of Allergy and Infectious Disease/National Institutes of Health/Rocky Mountain Laboratories Institutional Animal Care and Use Committee. For this study, a mix of male and female C57BL/6 mice at 23 to 25 days old were used. Mice were divided evenly and infected with LACV at either 1 × 10^3 pfu by an IP route or 1 x 10^2 pfu by an IN route. […] Mice showing one or more of these clinical symptoms were scored as having clinically significant disease and were subsequently euthanized for tissue removal. […] These mice were also scored as having clinically significant disease and underwent tissue removal when possible.

[10] = tested on: LACV; assay: MPID-NGS mutation rate of LACV RNA in brain tissue, IN-infected mice; type: in vivo, C57BL/6 mice; settings: IN infection
Excerpt: as §2, with “(UMI). Extracted viral RNA was reversed transcribed using SuperScript III (Thermal Fisher) to make cDNA in a single reaction with the two different cDNA primers.” for “(UMI).”, “PRJNA1092655. […]” for “PRJNA1092655.”

[11] = day 5, MOV from day 0, IP infection
[12] = oral MOV, started on the day of infection

NC(=O)c1nc(F)c[nH]c1=O [FAV, favipiravir]
EC50 [1]: 58.3 µM
EC50 [2]: 30.1 µM
EC50 [3]: 206 µM
mutation rate of LACV grown in presence of drug [4]: did not see a significant increase in mutation rates
CC50 [5]: 3340 µM
CC50 [6]: 1060 µM

CC(C)C(=O)OC[C@H]1O[C@@H](n2ccc(NO)nc2=O)[C@H](O)[C@@H]1O [MOV, molnupiravir]
mice survived through 28-30 dpi ([7]; MOV 300 mg/kg oral twice daily, delayed until 3 dpi, LACV 10^3 pfu IP): 15%
mice survived to 28-30 dpi ([7]; MOV 300 mg/kg oral twice daily, started on the day of infection, LACV 10^3 pfu IP): 31%
infectious virus titer in brain tissue vs vehicle (plaque assay) [7, 11]: significantly decreased
viral RNA load in brain tissue vs vehicle (qRT-PCR) [7, 11]: significantly decreased
viral RNA load in lymph nodes vs vehicle (qRT-PCR) [7, 11]: significantly decreased
decrease in neurological disease development [7, 12]: 31%
mice survived out of 13 [7, 12]: 4
average plaque size of virus from brain vs virus not exposed to MOV ([7]; virus isolated from brain, IP infection): significantly smaller
mice with clinical signs out of 13 ([8]; MOV 300 mg/kg oral twice daily, IN infection, vehicle 7): 4
reduction in disease vs vehicle ([8]; MOV oral from day of infection, IN infection): ~50%
infectious virus titer in the brain vs vehicle (plaque assay) ([8]; clinical mice, IN infection): slightly, but not significantly decreased
viral RNA in the brain vs vehicle (qRT-PCR) ([8]; clinical mice, IN infection): significantly decreased
disease reduced by (abstract) ([8]; virus administered intranasally): 23%
increase in C-to-U transition rate vs vehicle ([9]; brain tissue, IP infection): 9.1 per 10,000 bases
increase in G-to-A transition rate vs vehicle ([9]; brain tissue, IP infection): 5.2 per 10,000 bases
increase in total mutation rate of the virus vs vehicle ([9]; brain tissue, IP infection, averaged across amplicons): 2.8 per 10,000 bases
decrease in viral load in brain tissue per 1 mutation increase per 10,000 nucleotides ([9]; estimate from mutation rate vs LACV copy number): approximately 4.4 fold
increase in C-to-U mutations vs vehicle [10]: 4.3 per 10,000 bases
increase in G-to-A mutations vs vehicle [10]: 4.3 per 10,000 bases
